A value given as a limit tells only on which side of the number the result lay.

By EC90 is commonly meant the concentration needed for an effect of 90%. What is called IC50 is the point on the concentration scale where inhibition reaches its midpoint.

One data set has as its system HSV-1. Kind of data set: Antiviral activity, HSV-1 in Vero cells, plaque method. The conditions noted are these: Human alphaherpesvirus 1, 20 hours, 90% inhibition of plaque formation. In kind it is cell-based. Put shortly:
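HSV-1 (50,000 pfu in 2% FBS-DMEM) was added to Vero cells and removed, then the compound was applied in 2% FBS-DMEM for 20 h at 37° C, 5% CO2. After a freeze-thaw, virus yield in the medium was titred by plaque assay. EC90 is the concentration giving 90% plaque reduction versus the compound-free control.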

The next data set has as its system Vero cells. Kind of data set: Cytotoxicity, Vero cells, Alamar Blue. It is filed as cell-based. As to conditions: 25 μM, 20 hours. Put shortly: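 Overnight-seeded Vero cells were exposed to 25 μM compound in 2% FBS-DMEM for 20 h at 37 °C, 5% CO2. Alamar Blue was then added for about 6 h. The absorbance ratio relative to compound-free control gave the living-cell ratio.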
On the technique in general: Alamar Blue is a resazurin reagent that responds to reducing activity.

Another data set addresses T1, HSV-1 protease (Human herpesvirus 1, UniProt P10210).
T1 construct: 6xHis (N); made in house; host or cells: baculovirus expression system
Nature of the data set: Enzymatic assay for HSV-1 protease (assembly) inhibitor, fluorescence polarization. In kind it is biochemical. As to conditions: read-out: HSV-1 Enzyme inhibition IC50. Put shortly: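 His6-tagged HSV-1 UL26 protease, baculovirus-expressed, preincubated 30 min at RT with compound in 1 M citrate/phosphate buffer pH 7.4 with 20% glycerol and 2 mM TCEP. A biotin-HTYLQA*SERFRIK-DTAF substrate was then cleaved for 60 min at RT, stopped with avidin, and read by fluorescence polarization versus no-inhibitor control.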
On the technique in general: Polarisation of emitted light reports the rotation of a fluorescent probe.

T1 sequence (P10210 1-247): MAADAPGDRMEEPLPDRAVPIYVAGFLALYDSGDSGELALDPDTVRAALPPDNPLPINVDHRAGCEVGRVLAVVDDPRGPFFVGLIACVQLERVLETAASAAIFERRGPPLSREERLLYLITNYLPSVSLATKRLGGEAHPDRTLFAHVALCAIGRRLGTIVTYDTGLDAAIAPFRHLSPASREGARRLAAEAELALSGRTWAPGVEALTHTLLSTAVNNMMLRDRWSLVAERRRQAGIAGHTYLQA

`Cc1c(NC(=O)OC(C)(C)C)ccc2nc(N3Cc4ccccc4C[C@H]3C(=O)NCc3ccncc3)oc(=O)c12` [Compound No.96, (5-Methyl-4-oxo-2-{3S-[(pyridin-4-ylmethyl)-carbamoyl]-3,4-dihydro-1H-isoquinolin-2-yl}-4H-benzo[d][1,3]oxazin-6-yl)-carbamic acid tert-butyl ester] returned a 90% effect concentration (EC90) in the data set with HSV-1 of 11.2 µM. For the same compound, the “Cell viability (% of control)” value in the data set with Vero cells stood at 55.4%. The IC50 on HSV-1 protease was 5.5 µM.
For `Cc1c(NC(=O)OC(C)(C)C)ccc2nc(N[C@@H](Cc3ccccc3)C(=O)NCc3ccncc3)oc(=O)c12` [Compound No.31, (5-Methyl-4-oxo-2-{2-phenyl-1S-[(pyridin-4-ylmethyl)-carbamoyl]-ethylamino}-4H-benzo[d][1,3]oxazin-6-yl)-carbamic acid tert-butyl ester] the same measures were above 25 µM, 108.0% and above 20 µM.
On the same counts, the results for `Cc1c(NC(=O)OC(C)(C)C)ccc2nc(N(C)[C@@H](Cc3ccccc3)C(=O)N(C)CCc3ccccn3)oc(=O)c12` [Compound No.83, [5-Methyl-2-(methyl-{1S-[methyl-(2-pyridin-2-yl-ethyl)carbamoyl]-2-phenyl-ethyl}-amino)-4-oxo-4H-benzo[d][1,3]oxazin-6-yl]-carbamic acid tert-butyl ester] are 11.5 µM, 66.6% and 2.6 µM.
On the same counts, the results for `Cc1c(NC(=O)c2cccc(C(Cl)Cl)c2)ccc2nc(NC(C)(C)C(=O)N(C)CCc3ccccn3)oc(=O)c12` [Compound No.183, 3-Dichloromethyl-N-(5-methyl-2-{1-methyl-1-[methyl-(2-pyridin-2-yl-ethyl)-carbamoyl]-ethylamino}-4-oxo-4H-benzo[d][1,3]oxazin-6-yl)-benzamide] are above 12.5 µM, 101.0% and 1.3 µM.
Take `Cc1c(NC(=O)OC(C)(C)C)ccc2nc(N[C@@H](CC(C)C)C(=O)N(C)Cc3ccccn3)oc(=O)c12` [Compound No.62, {5-Methyl-2-[3-methyl-1S-(methyl-pyridin-2-ylmethyl-carbamoyl)-butylamino]-4-oxo-4H-benzo[d][1,3]oxazin-6-yl}-carbamic acid tert-butyl ester]: the concentration for an effect of 90% (EC90) in the data set on HSV-1 came out at 4.7 µM. Also, the “Cell viability (% of control)” value in the data set on Vero cells is 83.9%. Besides, at HSV-1 protease, the IC50 came out at 2.4 µM.
For `Cc1c(NC(=O)OC(C)(C)C)ccc2nc(N[C@@H](C)C(=O)N(C)CCc3ccncc3)oc(=O)c12` [Compound No.50, (5-Methyl-2-{1S-[methyl-(2-pyridin-4-yl-ethyl)-carbamoyl]-ethylamino}-4-oxo-4H-benzo[d][1,3]oxazin-6-yl)-carbamic acid tert-butyl ester] the same measures were below 3.2 µM, 106.0% and 0.9 µM.
In the case of `Cc1c(NC(=O)OC(C)(C)C)ccc2nc(N(C)[C@@H](C)C(=O)N(C)Cc3ccccn3)oc(=O)c12` [Compound No.75, (5-Methyl-2-{methyl-[1S-(methyl-pyridin-2-ylmethyl-carbamoyl)-ethyl]-amino}-4-oxo-4H-benzo[d][1,3]oxazin-6-yl)-carbamic acid tert-butyl ester], the EC90 with HSV-1 was above 12.5 µM. Besides, the “Cell viability (% of control)” value with Vero cells is on record as 93.1%. Further, the IC50 at HSV-1 protease is 2.2 µM.
As to `CCCc1ccc(C(=O)Nc2ccc3nc(NC(C)(C)C(=O)N(C)CCc4ccccn4)oc(=O)c3c2C)cc1` [Compound No.166, N-(5-Methyl-2-{1-methyl-1-[methyl-(2-pyridin-2-yl-ethyl)-carbamoyl]-ethylamino}-4-oxo-4H-benzo[d][1,3]oxazin-6-yl)-4-propyl-benzamide], it took 5.8 µM to reach the 90% level in the data set with HSV-1 (EC90). For the same compound, the “Cell viability (% of control)” value with Vero cells is 15.9%. Also, the IC50 at HSV-1 protease came out at 1.2 µM.
In the data set with HSV-1, `Cc1c(NC(=O)OC(C)(C)C)ccc2nc(N3CCCC[C@H]3C(=O)N(C)CCc3ccncc3)oc(=O)c12` [Compound No.108, (5-Methyl-2-{2S-[methyl-(2-pyridin-4-yl-ethyl)-carbamoyl]-piperidin-1-yl}-4-oxo-4H-benzo[d][1,3]oxazin-6-yl)-carbamic acid tert-butyl ester] registered an EC90 above 12.5 µM. Moreover, the “Cell viability (% of control)” value with Vero cells stood at 97.9%. Moreover, the IC50 on HSV-1 protease was determined as 4.4 µM.
For `Cc1c(NC(=O)OC(C)(C)C)ccc2nc(N[C@@H](Cc3ccccc3)C(=O)N(C)CCc3ccncc3)oc(=O)c12` [Compound No.49, (5-Methyl-2-{1S-[methyl-(2-pyridin-4-yl-ethyl)-carbamoyl]-2-phenyl-ethylamino}-4-oxo-4H-benzo[d][1,3]oxazin-6-yl)-carbamic acid tert-butyl ester] the same measures were below 3.2 µM, 76.0% and 0.9 µM.
`Cc1c(NC(=O)OC(C)(C)C)ccc2nc(N(C)[C@@H](C)C(=O)N(C)CCc3ccncc3)oc(=O)c12` [Compound No.78, [5-Methyl-2-(methyl-{1S-[methyl-(2-pyridin-4-yl-ethyl)-carbamoyl]-ethyl}-amino)-4-oxo-4H-benzo[d][1,3]oxazin-6-yl]-carbamic acid tert-butyl ester] returned an EC90 with HSV-1 above 12.5 µM. The “Cell viability (% of control)” value with Vero cells was determined as 90.7%. Moreover, on HSV-1 protease, the IC50 was found to be 1.4 µM.
For `Cc1c(NC(=O)c2sc3ccccc3c2Cl)ccc2nc(NC(C)(C)C(=O)N(C)CCc3ccccn3)oc(=O)c12` [Compound No.178, 3-Chloro-benzo[b]thiophene-2-carboxylic acid (5-methyl-2-{1-methyl-1-[methyl-(2-pyridin-2-yl-ethyl)-carbamoyl]-ethylamino}-4-oxo-4H-benzo[d][1,3]oxazin-6-yl)-amide] the same measures were 5.8 µM, 28.1% and 0.9 µM.
On the same counts, the results for `Cc1c(NC(=O)OC(C)(C)C)ccc2nc(N3C[C@H](OCc4ccccc4)C[C@H]3C(=O)NCc3ccccn3)oc(=O)c12` [Compound No.109, (2-{4R-Benzyloxy-2S-[(pyridin-2-ylmethyl)-carbamoyl]-pyrrolidin-1-yl}-5-methyl-4-oxo-4H-benzo[d][1,3]oxazin-6-yl)-carbamic acid tert-butyl ester] are 8.8 µM, 58.5% and 1.4 µM.
For `Cc1c(NC(=O)OC(C)(C)C)ccc2nc(N3CCCC[C@H]3C(=O)NCc3ccccn3)oc(=O)c12` [Compound No.102, (5-Methyl-4-oxo-2-{2S-[(pyridin-2-ylmethyl)-carbamoyl]-piperidin-1-yl}-4H-benzo[d][1,3]oxazin-6-yl)-carbamic acid tert-butyl ester] the same measures were above 12.5 µM, 64.4% and 1.6 µM.
In the case of `Cc1c(NC(=O)OC(C)(C)C)ccc2nc(N[C@@H](CC3CCCCC3)C(=O)NCc3cccnc3)oc(=O)c12` [Compound No.27, (2-{2-Cyclohexyl-1S-[(pyridin-3-ylmethyl)-carbamoyl]-ethylamino}-5-methyl-4-oxo-4H-benzo[d][1,3]oxazin-6-yl)-carbamic acid tert-butyl ester], the EC90 with HSV-1 is above 25 µM. The “Cell viability (% of control)” value in the data set with Vero cells is given as 103.0%. For the same compound, the IC50 at HSV-1 protease is 8.7 µM.
For `Cc1c(NC(=O)c2ccc([N+](=O)[O-])o2)ccc2nc(NC(C)(C)C(=O)N(C)CCc3ccccn3)oc(=O)c12` [Compound No.177, 5-Nitro-furan-2-carboxylic acid (5-methyl-2-{1-methyl-1-[methyl-(2-pyridin-2-yl-ethyl)-carbamoyl]-ethylamino}-4-oxo-4H-benzo[d][1,3]oxazin-6-yl)-amide] the same measures were above 12.5 µM, 38.0% and 6 µM.
On the same counts, the results for `Cc1c(NC(=O)c2cccc(CCl)c2)ccc2nc(NC(C)(C)C(=O)N(C)CCc3ccccn3)oc(=O)c12` [Compound No.170, 3-Chloromethyl-N-(5-methyl-2-{1-methyl-1-[methyl-(2-pyridin-2-yl-ethyl)-carbamoyl]-ethylamino}-4-oxo-4H-benzo [d][1,3]oxazin-6-yl)-benzamide] are 7.8 µM, 13.6% and 1.5 µM.
In turn, `CCCCCc1ccc(C(=O)Nc2ccc3nc(NC(C)(C)C(=O)N(C)CCc4ccccn4)oc(=O)c3c2C)cc1` [Compound No.185, N-(5-Methyl-2-{1-methyl-1-[methyl-(2-pyridin-2-yl-ethyl)-carbamoyl]-ethylamino}-4-oxo-4H-benzo[d][1,3]oxazin-6-yl)-4-pentyl-benzamide] displayed an EC90 with HSV-1 of 3.5 µM. Also, in the data set with Vero cells, the “Cell viability (% of control)” value came to 29.0%. For the same compound, the IC50 at HSV-1 protease turned out to be 7 µM.
For `Cc1c(NC(=O)OC(C)(C)C)ccc2nc(N[C@H](C(=O)NCc3ccccn3)C(C)(C)C)oc(=O)c12` [Compound No.32, (2-{2,2-dimethyl-1S-[(pyridin-2-ylmethyl)-carbamoyl]-propylamino}-5-methyl-4-oxo-4H-benzo[d][1,3]oxazin-6-yl)-carbamic acid tert-butyl ester] the same measures were 21.5 µM, 111.0% and 19.6 µM.

The values are drawn from patent US20040116420A1 (priority 2001, published 2004).
